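Five concentrations, 48 hours, 96-well plates. GI50: concentration for 50% inhibition of growth.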 Activity calls are given as the source filed them. Rule as the data show it: active = GI50 up to about 1.1 µM and inactive = higher.
Key:
Assay in all cases: NCI-60 cell line screen, 48 h
786-0 = test system: 786-0
K562 = test system: K562
UACC-257 = test system: UACC-257
SNB-75 = test system: SNB-75
OVCAR-5 = test system: OVCAR-5
EKVX = test system: EKVX
Malme-3M = test system: Malme-3M
CCRF-CEM = test system: CCRF-CEM
DMS-273 = test system: DMS-273
KM12 = test system: KM12
SF-539 = test system: SF-539
HCC 2998 = test system: HCC 2998
SF-268 = test system: SF-268
NCI-H226 = test system: NCI-H226
HL-60 = test system: HL-60
SN12C = test system: SN12C
MOLT-4 = test system: MOLT-4

Measured: GI50

O=c1[nH]c(C2CCCCC2)nc2c(Cl)cccc12
inactive: 786-0 > 100 µM | K562 > 100 µM | UACC-257 > 100 µM | SNB-75 > 100 µM | OVCAR-5 > 100 µM | EKVX 26.1 µM | Malme-3M > 100 µM | CCRF-CEM > 100 µM | DMS-273 > 100 µM | KM12 > 100 µM | SF-539 > 100 µM | HCC 2998 > 100 µM | SF-268 > 100 µM | NCI-H226 > 100 µM | HL-60 > 100 µM | SN12C > 100 µM

O=C(Nc1ccccc1[N+](=O)[O-])/C(=N/Nc1cccc(Cl)c1)c1c(O)c2ccccc2oc1=O
inactive: 786-0 > 100 µM | K562 25.2 µM | UACC-257 41.2 µM | SNB-75 > 100 µM | OVCAR-5 > 100 µM | EKVX > 100 µM | Malme-3M 97.9 µM | CCRF-CEM 14.4 µM | DMS-273 29.6 µM | KM12 > 100 µM | SF-539 > 100 µM | MOLT-4 48 µM | HCC 2998 84.1 µM | SF-268 28.9 µM | NCI-H226 > 100 µM | HL-60 > 10 µM

O=c1[nH]c(=O)n(C2CC(O)C(CO)O2)cc1C(F)(C(F)(F)F)C(F)(F)F (stereo not drawn)
inactive: 786-0 > 100 µM | K562 > 100 µM | UACC-257 > 100 µM | SNB-75 > 100 µM | OVCAR-5 > 100 µM | EKVX > 100 µM | Malme-3M > 100 µM | CCRF-CEM > 100 µM | DMS-273 > 100 µM | KM12 > 100 µM | SF-539 > 100 µM | MOLT-4 > 100 µM | SF-268 > 100 µM | NCI-H226 > 100 µM | HL-60 > 100 µM | SN12C > 100 µM

COC(=O)OCC1OC(N2C(=O)NC(=O)C(I)C2N=[N+]=[N-])CC1OC(=O)OC (stereo not drawn)
inactive: 786-0 > 100 µM | K562 > 100 µM | UACC-257 > 100 µM | SNB-75 > 100 µM | OVCAR-5 > 100 µM | Malme-3M > 100 µM | CCRF-CEM > 100 µM | DMS-273 > 100 µM | KM12 > 100 µM | SF-539 > 100 µM | MOLT-4 > 100 µM | HCC 2998 > 100 µM | SF-268 > 100 µM | NCI-H226 > 100 µM | HL-60 > 100 µM | SN12C > 100 µM

CN(C)c1ccc(/C=c2\sc3nnc(-c4ccco4)n3c2=O)cc1
inactive: 786-0 > 100 µM | K562 > 100 µM | UACC-257 16.7 µM | SNB-75 31.6 µM | OVCAR-5 > 100 µM | EKVX > 100 µM | Malme-3M > 100 µM | CCRF-CEM > 100 µM | DMS-273 > 100 µM | KM12 > 100 µM | SF-539 > 100 µM | MOLT-4 > 100 µM | HCC 2998 > 100 µM | SF-268 > 100 µM | NCI-H226 > 100 µM | HL-60 > 100 µM | SN12C > 100 µM

O=C1CSc2ccncc2N1
inactive: 786-0 > 100 µM | K562 > 100 µM | UACC-257 > 100 µM | SNB-75 > 100 µM | OVCAR-5 > 100 µM | EKVX > 100 µM | Malme-3M > 100 µM | CCRF-CEM > 100 µM | DMS-273 > 100 µM | SF-539 > 100 µM | MOLT-4 > 100 µM | HCC 2998 > 100 µM | SF-268 > 100 µM | NCI-H226 > 100 µM | HL-60 > 100 µM | SN12C > 100 µM

OCC(CO)C1c2cccc3ccc4cccc1c4c23
inactive: 786-0 > 100 µM | K562 > 100 µM | UACC-257 > 100 µM | SNB-75 54.1 µM | OVCAR-5 > 100 µM | EKVX 87.9 µM | Malme-3M > 100 µM | CCRF-CEM > 100 µM | DMS-273 > 100 µM | KM12 > 100 µM | SF-539 > 100 µM | MOLT-4 > 100 µM | SF-268 > 100 µM | NCI-H226 67.5 µM | HL-60 > 100 µM | SN12C > 100 µM

CCOC(=O)c1sc2c(C(=O)OCC)n3cc(C)cc(C)c3c2c1O
inactive: 786-0 > 100 µM | K562 > 100 µM | SNB-75 58.7 µM | OVCAR-5 > 100 µM | EKVX 29.5 µM | Malme-3M > 100 µM | CCRF-CEM > 100 µM | DMS-273 > 100 µM | KM12 > 100 µM | SF-539 > 100 µM | MOLT-4 > 100 µM | HCC 2998 > 100 µM | SF-268 > 100 µM | NCI-H226 > 100 µM | SN12C > 100 µM

CCOC(=O)C12CCCC1(O)N(NC(=O)c1ccccc1)C(C)=C2C(=O)OC (stereo not drawn)
inactive: 786-0 > 100 µM | K562 > 100 µM | UACC-257 > 100 µM | OVCAR-5 > 100 µM | EKVX > 100 µM | Malme-3M > 100 µM | CCRF-CEM > 100 µM | DMS-273 > 100 µM | KM12 > 100 µM | SF-539 > 100 µM | MOLT-4 > 100 µM | HCC 2998 > 100 µM | SF-268 > 100 µM | NCI-H226 > 100 µM | HL-60 > 100 µM | SN12C > 100 µM

CC1CC[P+](c2ccccc2)(c2ccccc2)CC1
inactive: 786-0 > 100 µM | K562 91.6 µM | UACC-257 33.6 µM | SNB-75 62.4 µM | OVCAR-5 > 100 µM | EKVX 68.7 µM | Malme-3M > 100 µM | CCRF-CEM 67.6 µM | DMS-273 68.9 µM | KM12 92.5 µM | SF-539 78.3 µM | MOLT-4 > 100 µM | HCC 2998 20.8 µM | NCI-H226 > 100 µM | HL-60 24.5 µM | SN12C > 100 µM

CC(C)(C)/N=N/C(C)(C)N=C=O
inactive: 786-0 > 100 µM | K562 > 100 µM | UACC-257 > 100 µM | SNB-75 > 100 µM | OVCAR-5 > 100 µM | EKVX 99.8 µM | Malme-3M > 100 µM | CCRF-CEM > 100 µM | DMS-273 > 100 µM | KM12 > 100 µM | SF-539 > 100 µM | MOLT-4 > 100 µM | SF-268 > 100 µM | NCI-H226 > 100 µM | HL-60 > 100 µM | SN12C > 100 µM

CC/C(=N\NS(=O)(=O)c1ccccc1)c1ccccc1
inactive: 786-0 > 100 µM | K562 > 100 µM | UACC-257 > 100 µM | SNB-75 > 100 µM | OVCAR-5 > 100 µM | EKVX > 100 µM | Malme-3M > 100 µM | CCRF-CEM > 100 µM | DMS-273 > 100 µM | KM12 > 100 µM | SF-539 > 100 µM | MOLT-4 > 100 µM | HCC 2998 > 100 µM | SF-268 > 100 µM | NCI-H226 > 100 µM | HL-60 > 100 µM | SN12C > 100 µM

From ChEMBL document CHEMBL1201862, “PubChem BioAssay data set” (2004)
